What follows are molecules tested against T1, IRAK-4 (Homo sapiens, UniProt Q9NWZ3) (assay: IRAK-4 Enzyme Inhibition Test (LANCE method)). Details: compound concentration 1 μM; well without enzyme = 100% inhibition.
T1 construct: purchased Carna Biosciences, Inc
T1 sequence (Q9NWZ3 1-460): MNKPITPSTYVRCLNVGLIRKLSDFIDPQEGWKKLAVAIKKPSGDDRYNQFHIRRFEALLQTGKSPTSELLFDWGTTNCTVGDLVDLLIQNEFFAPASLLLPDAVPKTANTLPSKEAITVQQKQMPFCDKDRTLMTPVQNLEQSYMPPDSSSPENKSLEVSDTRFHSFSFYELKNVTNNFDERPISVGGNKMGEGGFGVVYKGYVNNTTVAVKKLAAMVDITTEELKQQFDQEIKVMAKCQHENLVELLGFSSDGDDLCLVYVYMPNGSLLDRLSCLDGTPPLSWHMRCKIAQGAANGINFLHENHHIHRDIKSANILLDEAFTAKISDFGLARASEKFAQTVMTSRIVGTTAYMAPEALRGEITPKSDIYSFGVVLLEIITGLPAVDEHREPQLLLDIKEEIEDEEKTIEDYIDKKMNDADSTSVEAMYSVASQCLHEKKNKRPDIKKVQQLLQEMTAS
Type: biochemical
Method: IRAK-4 enzyme inhibitory activities of test compounds were measured by LANCE method (PerkinElmer). First, a test compound diluted with assay buffer (50 mM HEPES (pH7.5), 10 mM MgCl2, 1 mM EGTA, 2 mM DTT, 0.01% Tween 20, 0.01% BSA) was added to 384-well plate at 2 μL each. Then, IRAK-4 (Carna Biosciences, Inc.) and a fluorescence-labeled peptide substrate (ULight-ACC peptide, PerkinElmer) solution diluted with assay buffer at 240 ng/mL and 37.5 nM, respectively were added at 2 μL each. Then, enzyme reaction was started by adding 2 μL each of ATP solution prepared with assay buffer at 1.5 mM. After the reaction at room temperature for 1 hr, Detection Buffer (PerkinElmer) prepared to be 20 mM EDTA, 1 nM europium-labeled anti-phospho ACC antibody (PerkinElmer) was added at 6 μL each. After standing at room temperature for 1 hr, fluorescence intensity (excitation wavelength 340 nm, fluorescence wavelength 665 nm, delay time 100 microseconds) was measured by a plate reader, Envision (PerkinElmer). The inhibitory activity of each compound was calculated as relative value where fluorescence intensity of a well without enzyme is considered as 100% inhibition.

Row | IRAK4 enzyme inhibitory rate (%) at 1 μM | Structure (SMILES)
1 | 100% | CN(C)CC1CN(c2nn(C)cc2NC(=O)c2coc(-c3ccnc(NCC(F)(F)F)c3)n2)C(=O)C1(C)C (stereo not shown) [Example 62, N-(3-(4-((dimethylamino)methyl)-3,3-dimethyl-2-oxopyrrolidin-1-yl)-1-methyl-1H-pyrazol-4-yl)-2-(2-((2,2,2-trifluoroethyl)amino)pyridin-4-yl)-1,3-oxazole-4-carboxamide]

Same assay, conditions: compound concentration 1 μM; well without enzyme = 100% inhibition; read-out: IRAK4 enzyme inhibitory rate (%) at 1 μM

Row | inhibition at 1 µM | Structure (SMILES)
2 | 98% | CC1CCN(c2nn(C)cc2NC(=O)c2coc(-c3ccnc(NCC(F)(F)F)c3)n2)C1=O (stereo not shown) [Example 2, N-(1-methyl-3-(3-methyl-2-oxopyrrolidin-1-yl)-1H-pyrazol-4-yl)-2-(2-((2,2,2-trifluoroethyl)amino)pyridin-4-yl)-1,3-oxazole-4-carboxamide]
3 | 98% | Cn1cc(NC(=O)c2coc(-c3ccnc(NCC(F)(F)F)c3)n2)c(N2C[C@@H](O)CC2=O)n1 [Example 1, N-(3-((4S)-4-hydroxy-2-oxopyrrolidin-1-yl)-1-methyl-1H-pyrazol-4-yl)-2-(2-((2,2,2-trifluoroethyl)amino)pyridin-4-yl)-1,3-oxazole-4-carboxamide]
4 | 100% | CN1CCN(c2nn(C)cc2NC(=O)c2cccc(N3CC4(CCNC4)NC3=O)n2)C1=O (stereo not shown) [Example 215, N-(1-methyl-3-(3-methyl-2-oxoimidazolidin-1-yl)-1H-pyrazol-4-yl)-6-(2-oxo-1,3,7-triazaspiro[4.4]non-3-yl)pyridine-2-carboxamide]
5 | 99% | Cn1cc(NC(=O)c2coc(-c3ccnc(NCC(F)F)c3)n2)c(N2CCN(CCO)C2=O)n1 [Example 60, 2-(2-((2,2-difluoroethyl)amino)pyridin-4-yl)-N-(3-(3-(2-hydroxyethyl)-2-oxoimidazolidin-1-yl)-1-methyl-1H-pyrazol-4-yl)-1,3-oxazole-4-carboxamide]
6 | 100% | Cn1cc(NC(=O)c2coc(-c3ccnc(NCC4CC4)c3)n2)c(N2CCN(CCO)C2=O)n1 [Example 59, 2-(2-((cyclopropylmethyl)amino)pyridin-4-yl)-N-(3-(3-(2-hydroxyethyl)-2-oxoimidazolidin-1-yl)-1-methyl-1H-pyrazol-4-yl)-1,3-oxazole-4-carboxamide]
7 | 100% | CN(C)CC1CN(c2nn(C)cc2NC(=O)c2coc(-c3ccnc(NCC(F)(F)F)c3)n2)C(=O)C1(C)C (stereo not shown) [Example 61, N-(3-(4-((dimethylamino)methyl)-3,3-dimethyl-2-oxopyrrolidin-1-yl)-1-methyl-1H-pyrazol-4-yl)-2-(2-((2,2,2-trifluoroethyl)amino)pyridin-4-yl)-1,3-oxazole-4-carboxamide]
8 | 100% | CN(C)CC1CC(=O)N(c2nn(C)cc2NC(=O)c2coc(-c3ccnc(NCC(F)(F)F)c3)n2)C1 (stereo not shown) [Example 3, N-(3-(4-((dimethylamino)methyl)-2-oxopyrrolidin-1-yl)-1-methyl-1H-pyrazol-4-yl)-2-(2-((2,2,2-trifluoroethyl)amino)pyridin-4-yl)-1,3-oxazole-4-carboxamide]
9 | 77% | C[C@H]1C(O)C(C)(C)C(=O)N1c1nn(C)cc1NC(=O)c1coc(-c2ccnc(NCC(F)(F)F)c2)n1 (stereo partly drawn) [Example 17, N-(3-((5S)-4-hydroxy-3,3,5-trimethyl-2-oxopyrrolidin-1-yl)-1-methyl-1H-pyrazol-4-yl)-2-(2-((2,2,2-trifluoroethyl)amino)pyridin-4-yl)-1,3-oxazole-4-carboxamide]
10 | 100% | Cn1cc(NC(=O)c2cccc(N3CC4(CCNC4)NC3=O)n2)c(N2CCC(C)(C)C2=O)n1 (stereo not shown) [Example 206, N-(3-(3,3-dimethyl-2-oxopyrrolidin-1-yl)-1-methyl-1H-pyrazol-4-yl)-6-(2-oxo-1,3,7-triazaspiro[4.4]non-3-yl)pyridine-2-carboxamide]
11 | 99% | CN1CCN(c2nn(C)cc2NC(=O)c2coc(-c3ccnc(NCC(F)(F)F)c3)n2)C1=O [Example 48, N-(1-methyl-3-(3-methyl-2-oxoimidazolidin-1-yl)-1H-pyrazol-4-yl)-2-(2-((2,2,2-trifluoroethyl)amino)pyridin-4-yl)-1,3-oxazole-4-carboxamide]
12 | 30% | Cc1cccc(C(=O)Nc2cn(C)nc2N2CCC(C)(C)C2=O)c1 [Example 46, N-(3-(3,3-dimethyl-2-oxopyrrolidin-1-yl)-1-methyl-1H-pyrazol-4-yl)-3-methylbenzamide]
13 | 98% | CNCC1CN(c2nn(C)cc2NC(=O)c2coc(-c3ccnc(NCC(F)(F)F)c3)n2)C(=O)N1C (stereo not shown) [Example 110, N-(1-methyl-3-(3-methyl-4-((methylamino)methyl)-2-oxoimidazolidin-1-yl)-1H-pyrazol-4-yl)-2-(2-((2,2,2-trifluoroethyl)amino)pyridin-4-yl)-1,3-oxazole-4-carboxamide]
14 | 99% | C[C@H]1CCN(c2nn(C)cc2NC(=O)c2coc(-c3ccnc(NCC(F)(F)F)c3)n2)C1=O [Example 77, N-(1-methyl-3-((3S)-3-methyl-2-oxopyrrolidin-1-yl)-1H-pyrazol-4-yl)-2-(2-((2,2,2-trifluoroethyl)amino)pyridin-4-yl)-1,3-oxazole-4-carboxamide]
15 | 99% | Cn1cc(NC(=O)c2coc(-c3ccnc(NCC(F)(F)F)c3)n2)c(N2CCOC2=O)n1 [Example 55, N-(1-methyl-3-(2-oxo-1,3-oxazolidin-3-yl)-1H-pyrazol-4-yl)-2-(2-((2,2,2-trifluoroethyl)amino)pyridin-4-yl)-1,3-oxazole-4-carboxamide]
16 | 56% | Cn1cc(NC(=O)c2ccn(C(F)F)n2)c(N2CCC(C)(C)C2=O)n1 [Example 40, 1-(difluoromethyl)-N-(3-(3,3-dimethyl-2-oxopyrrolidin-1-yl)-1-methyl-1H-pyrazol-4-yl)-1H-pyrazole-3-carboxamide]
17 | 98% | Cn1cc(NC(=O)c2coc(-c3ccnc(NCC(F)(F)F)c3)n2)c(N2CCC(C)(C)C2=O)n1 [Example 13, N-(3-(3,3-dimethyl-2-oxopyrrolidin-1-yl)-1-methyl-1H-pyrazol-4-yl)-2-(2-((2,2,2-trifluoroethyl)amino)pyridin-4-yl)-1,3-oxazole-4-carboxamide]
18 | 98% | CN(C)[C@H]1CC(=O)N(c2nn(C)cc2NC(=O)c2coc(-c3ccnc(NCC(F)(F)F)c3)n2)C1 [Example 16, N-(3-((4S)-4-(dimethylamino)-2-oxopyrrolidin-1-yl)-1-methyl-1H-pyrazol-4-yl)-2-(2-((2,2,2-trifluoroethyl)amino)pyridin-4-yl)-1,3-oxazole-4-carboxamide]
19 | 99% | Cn1cc(NC(=O)c2coc(-c3ccnc(NCC(F)(F)F)c3)n2)c(N2CC(CO)C(C)(C)C2=O)n1 (stereo not shown) [Example 101, N-(3-(4-(hydroxymethyl)-3,3-dimethyl-2-oxopyrrolidin-1-yl)-1-methyl-1H-pyrazol-4-yl)-2-(2-((2,2,2-2-trifluoroethyl)amino)pyridin-4-yl)-1,3-oxazole-4-carboxamide]
20 | 99% | Cn1cc(NC(=O)c2cccc(N3C[C@@H](CN)NC3=O)n2)c(N2CCC(C)(C)C2=O)n1 [Example 199, 6-((4R)-4-(aminomethyl)-2-oxoimidazolidin-1-yl)-N-(3-(3,3-dimethyl-2-oxopyrrolidin-1-yl)-1-methyl-1H-pyrazol-4-yl)pyridine-2-carboxamide]
21 | 98% | CC(O)CN1CCN(c2nn(C)cc2NC(=O)c2coc(-c3ccnc(NCC(F)(F)F)c3)n2)C1=O (stereo not shown) [Example 164, N-(3-(3-(2-hydroxypropyl)-2-oxoimidazolidin-1-yl)-1-methyl-1H-pyrazol-4-yl)-2-(2-((2,2,2-trifluoroethyl)amino)pyridin-4-yl)-1,3-oxazole-4-carboxamide]
22 | 36% | Cc1cccc(C(=O)Nc2cn(C)nc2N2CCC(C)(C)C2=O)n1 [Example 36, N-(3-(3,3-dimethyl-2-oxopyrrolidin-1-yl)-1-methyl-1H-pyrazol-4-yl)-6-methylpyridine-2-carboxamide]
